The assay has as its target T1, mAChR M1 (UniProt P08482).
T1 sequence (P08482 1-460): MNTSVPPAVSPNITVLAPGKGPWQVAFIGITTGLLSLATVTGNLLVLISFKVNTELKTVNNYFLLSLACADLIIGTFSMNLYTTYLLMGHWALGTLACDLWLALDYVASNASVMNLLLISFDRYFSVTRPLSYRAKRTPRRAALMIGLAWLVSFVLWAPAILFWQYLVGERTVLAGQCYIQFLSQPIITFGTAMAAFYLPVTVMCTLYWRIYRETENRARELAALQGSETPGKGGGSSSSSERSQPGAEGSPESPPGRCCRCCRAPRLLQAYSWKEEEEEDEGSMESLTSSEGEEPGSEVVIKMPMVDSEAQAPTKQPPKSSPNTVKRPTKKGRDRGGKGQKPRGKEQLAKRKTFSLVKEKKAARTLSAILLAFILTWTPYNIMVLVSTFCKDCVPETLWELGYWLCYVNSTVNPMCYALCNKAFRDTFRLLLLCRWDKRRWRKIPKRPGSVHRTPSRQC
The assay can be described thus: mAChR M1 cell-based functional assay (calcium mobilization, Fluo-4, FDSS). Particulars: for Efficacy (% ACh maximum at 30 μM): maximal calcium flux response from curve fit or response at 30 μM compound, as % of the EC80 ACh response; for EC50: positive allosteric modulation of EC20 acetylcholine response, CHO-K1 cells expressing mAChR M1, read-out: Potency (EC50). As for the experimental part: Chinese hamster ovary (CHO-K1) cells stably expressing rat (r)M1 were purchased from the American Type Culture Collection and cultured according to their indicated protocol. […] To make stable rM2, hM2, rM3, hM4, and rM4 cell lines for use in calcium mobilization assays, these cells also were stably transfected with a chimeric G-protein (Gqi5) (provided by B. R. Conklin, University of California, San Francisco) using Lipofectamine 2000. rM1, hM1, rM3, hM3, rM5, and hM5 cells were grown in Ham's F-12 medium containing 10% heat-inactivated fetal bovine serum (FBS), 20 mM HEPES, and 50 μg/mL G418 sulfate. rM2-Gqi5, hM2-Gqi5, and hM4-Gqi5 cells were grown in the same medium also containing 500 μg/mL Hygromycin B. Stable rM4-Gqi5 cells were grown in DMEM containing 10% heat-inactivated FBS, 20 mM HEPES, 400 μg/mL G418 sulfate, and 500 μg/mL Hygromycin B.
For high throughput measurement of agonist-evoked increases in intracellular calcium, CHO-K1 cells stably expressing muscarinic receptors were plated in growth medium lacking G418 and hygromycin at 15,000 cells/20 μL/well in Greiner 384-well black-walled, tissue culture (TC)-treated, clear-bottom plates (VWR). Cells were incubated overnight at 37° C. and 5% CO2. […] Compound master plates were formatted in an 11 point CRC format (1:3 dilutions) in 100% DMSO with a starting concentration of 10 mM using the BRAVO liquid handler (Agilent). Test compound CRCs were then transferred to daughter plates (240 nL) using the Echo acoustic plate reformatter (Labcyte, Sunnyvale, Calif.) and then diluted into assay buffer (40 μL) to a 2× stock using a Thermo Fisher Combi (Thermo Fisher Scientific, Waltham, Mass.).
Calcium flux was measured using the Functional Drug Screening System (FDSS) 6000 (Hamamatsu Corporation, Tokyo, Japan) as an increase in the fluorescent static ratio. Compounds were applied to cells (20 μL, 2×) using the automated system of the FDSS 6000 at 4 s into the 300 s protocol and the data were collected at 1 Hz. […] Agonist activity was analyzed as a concentration-dependent increase in calcium mobilization upon compound addition. Positive allosteric modulator activity was analyzed as a concentration-dependent increase in the EC20 acetylcholine response. Antagonist activity was analyzed as a concentration-dependent decrease in the EC80 acetylcholine response. Concentration-response curves were generated using a four-parameter logistical equation in XLfit curve fitting software (IDBS, Bridgewater, N.J.) for Excel (Microsoft, Redmond, Wash.) or Prism (GraphPad Software, Inc., San Diego, Calif.).
The calcium mobilization assay was also used to determine “efficacy”. In the context of the assays carried out for the data in Table I, “efficacy” (% ACh at 30 μM) is defined as the maximal response in the calcium flux as determined by the sigmoidal curve fit of the concentration response curve, or in the absence of an acceptable curve fit, the response recorded at 30 μM test compound, stated as a percentage of the response elicited by a concentration of Ach that induces approximately 80% of a maximal (i.e. saturating) ACh response.
For orientation: A change in cytosolic calcium serves as a functional read-out for many receptors and channels.

Turning to `O=C(CS(=O)(=O)c1cn(Cc2cccc(-c3ccnc(F)c3)c2)c2cc(F)cc(F)c12)Nc1ccccn1` [compound 20, 2-((4,6-difluoro-1-(3-(2-fluoropyridin-4-yl)benzyl)-1H-indol-3-yl)sulfonyl)-N-(pyridin-2-yl)acetamide], the “Efficacy (% ACh maximum at 30 μM)” value was determined as 36% and the concentration giving a half-maximal response (EC50) (in general, the concentration needed to bring the measured effect to its halfway point) amounted to 3.5 µM.
Regarding `COc1ccc(-c2cccc(Cn3cc(S(=O)(=O)CC(=O)Nc4ccccn4)c4c(F)cc(F)cc43)c2)cn1` [compound 16, 2-((4,6-difluoro-1-(3-(6-methoxypyridin-3-yl)benzyl)-1H-indol-3-yl)sulfonyl)-N-(pyridin-2-yl)acetamide], the “Efficacy (% ACh maximum at 30 μM)” value turned out to be 42% and the EC50 turned out to be 3.3 µM.
The like results for `Cc1cc(NC(=O)CS(=O)(=O)c2cn(Cc3cccc(-c4cnn(C)c4)c3)c3ccccc23)no1` [compound 12, 2-((1-(3-(1-methyl-1H-pyrazol-4-yl)benzyl)-1H-indol-3-yl)sulfonyl)-N-(5-methylisoxazol-3-yl)acetamide] were, in that order, 95% and 2.75 µM.
For the compound `Cc1cc(NC(=O)CS(=O)(=O)c2cn(Cc3cccc(-c4cc[nH]n4)c3F)c3ccccc23)no1` [compound 23, 2-((1-(2-fluoro-3-(1H-pyrazol-3-yl)benzyl)-1H-indol-3-yl)sulfonyl)-N-(5-methylisoxazol-3-yl)acetamide], the “Efficacy (% ACh maximum at 30 μM)” value is listed as 103% and the EC50 is 4.4 µM.
In the case of `Cc1cc(NC(=O)CS(=O)(=O)c2cn(Cc3ccc(OC(F)(F)F)cc3)c3ccccc23)no1` [compound 57, N-(5-methyl-1,2-oxazol-3-yl)-2-(1-{[4-(trifluoromethoxy)phenyl]methyl}-1H-indole-3-sulfonyl)acetamide], the EC50 was more than 10 µM.
With `Cc1cc(NC(=O)CS(=O)(=O)c2cn(Cc3cccc(C(F)(F)F)c3)c3ccccc23)no1` [compound 54, N-(5-methyl-1,2-oxazol-3-yl)-2-(1-{[3-(trifluoromethyl)phenyl]methyl}-1H-indole-3-sulfonyl)acetamide], the EC50 is more than 10 µM.
On to `O=C(CS(=O)(=O)c1cn(Cc2ccccc2)c2cc(F)cc(F)c12)Nc1ccccn1` [compound 1, 2-((1-benzyl-4,6-difluoro-1H-indol-3-yl)sulfonyl)-N-(pyridin-2-yl)acetamide], for which the “Efficacy (% ACh maximum at 30 μM)” value turned out to be 59% and the EC50 turned out to be 0.99 µM.
The like results for `O=C(CS(=O)(=O)c1cn(Cc2cccc(Br)c2)c2cc(F)cc(F)c12)Nc1cncnc1` [compound 37, 2-((1-(3-bromobenzyl)-4,6-difluoro-1H-indol-3-yl)sulfonyl)-N-(pyrimidin-5-yl)acetamide] were, in that order, 48% and more than 10 µM.
Taken in the same sequence, the figures for `O=C(CS(=O)(=O)c1cn(Cc2cccc(-c3ccncc3)c2)c2cc(F)cc(F)c12)Nc1ccccn1` [compound 14, 2-((4,6-difluoro-1-(3-(pyridin-4-yl)benzyl)-1H-indol-3-yl)sulfonyl)-N-(pyridin-2-yl)acetamide] were 55% and 2.9 µM.
On to `Cc1cc(NC(=O)CS(=O)(=O)c2cn(Cc3cc(Br)cc(Br)c3)c3ccccc23)no1` [compound 68, 2-{1-[(3,5-dibromophenyl)methyl]-1H-indole-3-sulfonyl}-N-(5-methyl-1,2-oxazol-3-yl)acetamide], for which the EC50 was more than 10 µM.
Still for that read-out and setting: the figure for `Cc1cc(NC(=O)CS(=O)(=O)c2cn(Cc3ccc(F)c(Br)c3)c3ccccc23)no1` [compound 61, 2-{1-[(3-bromo-4-fluorophenyl)methyl]-1H-indole-3-sulfonyl}-N-(5-methyl-1,2-oxazol-3-yl)acetamide] is more than 10 µM.
On to `COc1ncc(-c2cccc(Cn3cc(S(=O)(=O)CC(=O)Nc4ccccn4)c4c(F)cc(F)cc43)c2)cn1` [compound 18, 2-((4,6-difluoro-1-(3-(2-methoxypyrimidin-5-yl)benzyl)-1H-indol-3-yl)sulfonyl)-N-(pyridin-2-yl)acetamide], for which the “Efficacy (% ACh maximum at 30 μM)” value stood at 50% and the concentration giving a half-maximal response (EC50) was determined as 3.4 µM.
The like results for `Cc1cc(NC(=O)CS(=O)(=O)c2cn(Cc3cccc(-n4ccnn4)c3)c3cc(F)cc(F)c23)no1` [compound 3, 2-((1-(3-(1H-1,2,3-triazol-1-yl)benzyl)-4,6-difluoro-1H-indol-3-yl)sulfonyl)-N-(5-methylisoxazol-3-yl)acetamide] were, in that order, 72% and 1.5 µM.
Taken in the same sequence, the figures for `Cc1cc(NC(=O)CS(=O)(=O)c2cn(Cc3cccc(Br)c3)c3ccccc23)no1` [compound 22, 2-((1-(3-bromobenzyl)-1H-indol-3-yl)sulfonyl)-N-(5-methylisoxazol-3-yl)acetamide] were 91% and 3.79 µM.
For the compound `Cc1cc(NC(=O)CSc2c[nH]c3ccccc23)no1` [compound 41, 2-(1H-indol-3-ylsulfanyl)-N-(5-methyl-1,2-oxazol-3-yl)acetamide], the EC50 was more than 10 µM.
As to `Cc1cc(NC(=O)CS(=O)(=O)c2cn(Cc3cccc(-c4ccncc4)c3)c3cc(F)cc(F)c23)no1` [compound 2, 2-((4,6-difluoro-1-(3-(pyridin-4-yl)benzyl)-1H-indol-3-yl)sulfonyl)-N-(5-methylisoxazol-3-yl)acetamide], the “Efficacy (% ACh maximum at 30 μM)” value was found to be 66% and the concentration giving a half-maximal response (EC50) was determined as 1.2 µM.
With `Cc1cc(NC(=O)CS(=O)(=O)c2cn(Cc3cccc(-c4ccc(N5CCNCC5)nc4)c3)c3ccccc23)no1` [compound 70, N-(5-methyl-1,2-oxazol-3-yl)-2-[1-({3-[6-(piperazin-1-yl)pyridin-3-yl]phenyl}methyl)-1H-indole-3-sulfonyl]acetamide], the EC50 was more than 10 µM.
Same read-out and setting: the figure for `COc1ccccc1Cn1cc(S(=O)(=O)CC(=O)Nc2cc(C)on2)c2ccccc21` [compound 47, 2-{1-[(2-methoxyphenyl)methyl]-1H-indole-3-sulfonyl}-N-(5-methyl-1,2-oxazol-3-yl)acetamide] is more than 10 µM.
In the case of `Nc1cccc(Cn2cc(S(=O)(=O)CC(=O)Nc3ccccn3)c3c(F)cc(F)cc32)c1` [compound 31, 2-((1-(3-aminobenzyl)-4,6-difluoro-1H-indol-3-yl)sulfonyl)-N-(pyridin-2-yl)acetamide], the “Efficacy (% ACh maximum at 30 μM)” value was 69% and the EC50 stood at 5.6 µM.
Regarding `Cc1cc(NC(=O)CSc2cn(Cc3ccccc3Cl)c3ccccc23)no1` [compound 42, 2-({1-[(2-chlorophenyl)methyl]-1H-indol-3-yl}sulfanyl)-N-(5-methyl-1,2-oxazol-3-yl)acetamide], the concentration for a half-maximal effect (EC50) was more than 10 µM.
Regarding `Cc1noc(C)c1-c1cccc(Cn2cc(S(=O)(=O)CC(=O)Nc3ccccn3)c3c(F)cc(F)cc32)c1` [compound 17, 2-((1-(3-(3,5-dimethylisoxazol-4-yl)benzyl)-4,6-difluoro-1H-indol-3-yl)sulfonyl)-N-(pyridin-2-yl)acetamide], the “Efficacy (% ACh maximum at 30 μM)” value is listed as 42% and the concentration for a half-maximal effect (EC50) was 3.4 µM.
For `Cc1cc(NC(=O)CSc2cn(Cc3cccc(Br)c3)c3ccccc23)no1` [compound 51, 2-({1-[(3-bromphenyl)methyl]-1H-indol-3-yl}sulfanyl)-N-(5-methyl-1,2-oxazol-3-yl)acetamide], the half-maximal effective concentration (EC50) was more than 10 µM.

The values are drawn from patent US8772509B2, “Indole compounds as positive allosteric modulators of the muscarinic receptor” (Vanderbilt University, priority 2010, dated 2014).
